Assay results taken from ChEMBL document CHEMBL6134905, “Double Swords in One: Novel Selective PI3K/110β PROTAC Degraders for the Treatment of Multidrug-Resistant Cancer by Activating ERS and Inhibiting P-gp” (J Med Chem, 2025).
Calls of active or inactive are those of the source. No cut-off for these calls is given here.

What was measured:
[1] = Toxicity in BALB/c mouse xenografted with human MCF7/ADM cells assessed as change in ALT level at 50 mg/kg, ip; format: organism-based; conditions: in vivo
MCF7 = assay: Antitumor activity against human MCF7 cells assessed as cell viability incubated for 24 hrs by MTT assay; format: functional, cell-based; conditions: MCF7, 24 h
MCF7/ADM [2] = assay: Antitumor activity against human MCF7/ADM cells xenografted in BALB/c mouse assessed as increase in cleaved caspase-9 expression in tumor at 50 mg/kg, ip by Western blot analysis; format: functional, organism-based
A549/CDDP [3] = assay: Activation of unfolded protein response in human A549/DDP cells at 25 uM incubated for 24 hrs by PROTEOSTATR aggresome dye based fluorescent microscopy; format: functional, cell-based
[4] = Toxicity in BALB/c mouse xenografted with human MCF7/ADM cells assessed as tumor damage at 50 mg/kg, ip by H and E staining based analysis; format: organism-based; conditions: in vivo
A549 = assay: Antitumor activity against human A549 cells assessed as cell viability incubated for 24 hrs by MTT assay; format: functional, cell-based; conditions: A549, 24 h
[5] = target: T1, ATP-dependent translocase ABCB1 (Homo sapiens, UniProt P08183); assay: Inhibition of P-gp in human MCF7/ADM cells assessed as increase in intracellular adriamycin accumulation at 6.25 to 25 uM incubated for 24 hrs by flow cytometry analysis; format: cell-based; conditions: dose 6.25-25 µM
MCF7/ADM [6] = assay: Upregulation of ATF4 expression in human MCF7/ADM cells at 0.25 to 25 uM incubated for 24 hrs by Western blot analysis; format: functional, cell-based; conditions: dose 0.25-25 µM
[7] = target: von Hippel-Lindau disease tumor suppressor/Phosphatidylinositol 4,5-bisphosphate 3-kinase catalytic subunit alpha isoform (Homo sapiens, UniProt P42336+P40337); assay: PROTAC activity at PI3K-p110alpha/VHL in human A549/DDP cells assessed as induction of PI3K-p110alpha degradation at 0.04 to 50 uM by Western blot analysis; format: cell-based; conditions: dose 0.04-50 µM, time 24.0 hrs
[8] = target: T2, von Hippel-Lindau disease tumor suppressor/Phosphatidylinositol 4,5-bisphosphate 3-kinase catalytic subunit beta isoform (Homo sapiens, UniProt P42338+P40337); assay: PROTAC activity at PI3K-p110beta/VHL in human MCF7/ADM cells assessed as induction of PI3K-p110beta degradation at 25 uM measured for 24 hrs in presence of VHL ligand by Western blot analysis; format: cell-based
MCF7/ADM [9] = assay: Induction of oxidative stress in human MCF7/ADM cells at 25 uM measured for 24 hrs; format: functional, cell-based
[10] = target: T2, von Hippel-Lindau disease tumor suppressor/Phosphatidylinositol 4,5-bisphosphate 3-kinase catalytic subunit beta isoform; assay: PROTAC activity at PI3K-p110beta/VHL in human A549/DDP cells assessed as induction of PI3K-p110beta degradation at 0.04 to 50 uM by Western blot analysis; format: cell-based; conditions: dose 0.04-50 µM, time 24.0 hrs
A549/CDDP [11] = assay: Upregulation of PTEN expression in human A549/DDP cells at 25 uM incubated for 24 hrs by Western blot analysis; format: functional, cell-based
MCF7/ADM [12] = assay: Induction of apoptosis in human MCF7/ADM cells assessed as increase in cleaved caspase-3 expression at 12.5 uM incubated for 24 hrs by Western blot analysis; format: functional, cell-based
A549/CDDP [13] = assay: Induction of apoptosis in human A549/DDP cells assessed as increase in caspase-9 expression at 12.5 uM incubated for 24 hrs by Western blot analysis; format: functional, cell-based
MCF7/ADM [14] = assay: Induction of apoptosis in human MCF7/ADM cells assessed as decrease in bcl-2 expression at 12.5 uM incubated for 24 hrs by Western blot analysis; format: functional, cell-based
[15] = target: T2, von Hippel-Lindau disease tumor suppressor/Phosphatidylinositol 4,5-bisphosphate 3-kinase catalytic subunit beta isoform; assay: PROTAC activity at PI3K-p110beta/VHL in human MCF7/ADM cells assessed as induction of PI3K-p110beta degradation at 25 uM measured for 24 hrs in presence of MG132 by Western blot analysis; format: cell-based
MCF7/ADM [16] = assay: Antitumor activity against human MCF7/ADM cells xenografted in BALB/c mouse assessed as increase in caspase-12 expression in tumor at 50 mg/kg, ip by Western blot analysis; format: functional, organism-based
A549/CDDP [17] = assay: Downregulation of p-gp level in human A549/DDP cells at 6.25 to 25 uM incubated for 24 hrs; format: functional, cell-based; conditions: dose 6.25-25 µM
[18] = Toxicity in BALB/c mouse xenografted with human MCF7/ADM cells assessed as heart damage at 50 mg/kg, ip by H and E staining based analysis; format: organism-based; conditions: in vivo
[19] = Antitumor activity against human MCF7/ADM cells assessed as cell viability incubated for 24 hrs by MTT assay; format: functional, cell-based
[20] = Toxicity in BALB/c mouse xenografted with human MCF7/ADM cells assessed as body weight loss at 50 mg/kg, ip; format: organism-based; conditions: in vivo
[21] = target: T1, ATP-dependent translocase ABCB1; assay: Inhibition of P-gp in human A549/DDP cells at 6.25 to 25 uM incubated for 24 hrs; format: cell-based; conditions: dose 6.25-25 µM
MCF7/ADM [22] = assay: Antitumor activity against human MCF7/ADM cells xenografted in BALB/c mouse assessed as increase in PERK expression in tumor at 50 mg/kg, ip by Western blot analysis; format: functional, organism-based
[23] = target: T2, von Hippel-Lindau disease tumor suppressor/Phosphatidylinositol 4,5-bisphosphate 3-kinase catalytic subunit beta isoform; assay: PROTAC activity at PI3K-p110beta/VHL in human MCF7/ADM cells assessed as induction of PI3K-p110beta degradation at 25 uM measured for 24 hrs in presence of TGX221 by Western blot analysis; format: cell-based
MCF7/ADM [24] = assay: Induction of apoptosis in human MCF7/ADM cells assessed as decrease in bax expression at 12.5 uM incubated for 24 hrs by Western blot analysis; format: functional, cell-based
[25] = target: T2, von Hippel-Lindau disease tumor suppressor/Phosphatidylinositol 4,5-bisphosphate 3-kinase catalytic subunit beta isoform; assay: PROTAC activity at PI3K-p110beta/VHL in human A549/DDP cells assessed as reduction in PI3K-p110beta level incubated for 2 hrs by Western blot analysis; format: cell-based
A549/CDDP [26] = assay: Induction of apoptosis in human A549/DDP cells assessed as increase in cleaved caspase-8 expression at 12.5 uM incubated for 24 hrs by Western blot analysis; format: functional, cell-based
MCF7/ADM [27] = assay: Antitumor activity against human MCF7/ADM cells xenografted in BALB/c mouse assessed as increase in CHOP expression in tumor at 50 mg/kg, ip by Western blot analysis; format: functional, organism-based
[28] = Toxicity in BALB/c mouse xenografted with human MCF7/ADM cells assessed as spleen damage at 50 mg/kg, ip by H and E staining based analysis; format: organism-based; conditions: in vivo
[29] = Toxicity in BALB/c mouse xenografted with human MCF7/ADM cells assessed as change in creatinine level at 50 mg/kg, ip; format: organism-based; conditions: in vivo
[30] = target: T2, von Hippel-Lindau disease tumor suppressor/Phosphatidylinositol 4,5-bisphosphate 3-kinase catalytic subunit beta isoform; assay: PROTAC activity at PI3K-p110beta/VHL in human A549/DDP cells assessed as induction of PI3K-p110beta degradation at 25 uM measured for 24 hrs in presence of MG132 by Western blot analysis; format: cell-based
MCF7/ADM [31] = assay: Antitumor activity against human MCF7/ADM cells xenografted in BALB/c mouse assessed as reduction in tumor volume at 50 mg/kg, ip measured every 2 days; format: functional, organism-based; conditions: time 2.0 day
A549/CDDP [32] = assay: Upregulation of p-IRE1 expression in human A549/DDP cells at 0.25 to 25 uM incubated for 24 hrs by Western blot analysis; format: functional, cell-based; conditions: dose 0.25-25 µM
Mitochondrial membrane = assay: Induction of mitochondrial membrane potential loss in human MCF7/ADM cells assessed as increase in green fluorescence at 25 uM incubated for 48 hrs by JC-1 staining based flow cytometry

T2 sequence (P40337 whole entry, looked up, canonical isoform): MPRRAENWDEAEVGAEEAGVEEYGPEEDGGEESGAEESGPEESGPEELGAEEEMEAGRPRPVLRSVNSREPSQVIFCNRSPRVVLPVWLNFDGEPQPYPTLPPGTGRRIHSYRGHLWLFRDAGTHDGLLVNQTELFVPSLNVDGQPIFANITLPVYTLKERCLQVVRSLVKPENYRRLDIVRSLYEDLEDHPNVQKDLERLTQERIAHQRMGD
T2 sequence (P42338 whole entry, looked up, canonical isoform): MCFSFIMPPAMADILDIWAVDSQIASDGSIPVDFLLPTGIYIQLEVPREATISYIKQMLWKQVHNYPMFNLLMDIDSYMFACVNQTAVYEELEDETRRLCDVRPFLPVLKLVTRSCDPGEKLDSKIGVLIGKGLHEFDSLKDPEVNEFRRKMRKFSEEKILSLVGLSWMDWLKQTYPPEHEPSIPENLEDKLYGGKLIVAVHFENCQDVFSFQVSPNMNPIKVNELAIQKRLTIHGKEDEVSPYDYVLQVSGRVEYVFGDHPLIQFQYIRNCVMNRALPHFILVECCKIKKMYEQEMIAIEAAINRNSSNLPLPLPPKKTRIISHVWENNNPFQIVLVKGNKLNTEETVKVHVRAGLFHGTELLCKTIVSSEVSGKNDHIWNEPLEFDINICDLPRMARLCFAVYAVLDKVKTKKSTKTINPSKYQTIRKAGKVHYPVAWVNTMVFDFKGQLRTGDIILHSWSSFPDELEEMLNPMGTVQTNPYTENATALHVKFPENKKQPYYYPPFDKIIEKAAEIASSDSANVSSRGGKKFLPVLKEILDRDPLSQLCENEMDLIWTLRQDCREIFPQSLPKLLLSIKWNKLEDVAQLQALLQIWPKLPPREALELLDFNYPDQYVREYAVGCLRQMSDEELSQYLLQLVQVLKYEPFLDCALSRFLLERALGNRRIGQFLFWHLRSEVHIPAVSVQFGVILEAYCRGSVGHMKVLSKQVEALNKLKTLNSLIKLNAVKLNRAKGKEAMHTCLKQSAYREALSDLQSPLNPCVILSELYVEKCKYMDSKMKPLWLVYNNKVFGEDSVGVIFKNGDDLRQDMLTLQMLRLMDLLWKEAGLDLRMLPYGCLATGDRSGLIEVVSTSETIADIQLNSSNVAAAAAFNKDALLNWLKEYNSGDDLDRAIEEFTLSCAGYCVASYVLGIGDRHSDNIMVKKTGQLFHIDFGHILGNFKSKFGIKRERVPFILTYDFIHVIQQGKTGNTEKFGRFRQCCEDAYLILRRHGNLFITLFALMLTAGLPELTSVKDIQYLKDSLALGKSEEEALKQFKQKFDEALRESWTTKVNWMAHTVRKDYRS
T1 sequence (P08183 whole entry): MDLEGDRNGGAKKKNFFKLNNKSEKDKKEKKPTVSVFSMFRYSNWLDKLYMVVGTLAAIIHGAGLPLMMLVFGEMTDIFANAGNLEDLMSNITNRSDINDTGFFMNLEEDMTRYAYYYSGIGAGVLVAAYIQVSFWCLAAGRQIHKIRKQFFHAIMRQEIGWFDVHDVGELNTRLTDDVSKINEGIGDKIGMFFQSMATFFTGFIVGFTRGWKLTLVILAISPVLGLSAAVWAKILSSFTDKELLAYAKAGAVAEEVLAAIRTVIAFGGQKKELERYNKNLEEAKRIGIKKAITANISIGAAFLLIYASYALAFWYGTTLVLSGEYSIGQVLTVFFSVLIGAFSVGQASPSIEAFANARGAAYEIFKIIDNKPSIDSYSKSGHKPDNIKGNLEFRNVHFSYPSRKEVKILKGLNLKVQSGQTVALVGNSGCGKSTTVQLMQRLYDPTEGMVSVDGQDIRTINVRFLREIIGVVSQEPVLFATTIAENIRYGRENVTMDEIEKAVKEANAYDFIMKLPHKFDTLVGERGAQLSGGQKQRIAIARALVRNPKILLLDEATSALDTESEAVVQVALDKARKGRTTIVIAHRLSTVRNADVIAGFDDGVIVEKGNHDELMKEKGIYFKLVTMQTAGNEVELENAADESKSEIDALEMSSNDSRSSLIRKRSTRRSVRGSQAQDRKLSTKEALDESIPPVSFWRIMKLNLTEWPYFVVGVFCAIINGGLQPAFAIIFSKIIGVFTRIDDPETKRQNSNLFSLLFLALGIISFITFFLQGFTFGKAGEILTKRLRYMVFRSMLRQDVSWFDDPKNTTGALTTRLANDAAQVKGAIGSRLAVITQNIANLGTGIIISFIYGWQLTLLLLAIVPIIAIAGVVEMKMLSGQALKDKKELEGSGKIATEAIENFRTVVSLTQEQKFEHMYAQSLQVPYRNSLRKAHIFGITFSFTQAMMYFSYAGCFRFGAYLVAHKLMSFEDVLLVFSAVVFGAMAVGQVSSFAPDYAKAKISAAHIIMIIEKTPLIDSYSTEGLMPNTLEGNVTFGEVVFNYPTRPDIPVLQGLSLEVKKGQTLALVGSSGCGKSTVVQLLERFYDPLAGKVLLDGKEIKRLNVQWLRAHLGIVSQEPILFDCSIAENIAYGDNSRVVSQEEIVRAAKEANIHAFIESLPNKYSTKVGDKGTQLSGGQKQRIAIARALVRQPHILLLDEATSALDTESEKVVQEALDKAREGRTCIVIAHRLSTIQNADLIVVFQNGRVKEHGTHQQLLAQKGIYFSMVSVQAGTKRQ
Chain of von Hippel-Lindau disease tumor suppressor/Phosphatidylinositol 4,5-bisphosphate 3-kinase catalytic subunit alpha isoform (P40337 whole entry, looked up, canonical isoform): as the sequence (P40337 whole entry, looked up, canonical isoform) above
Chain of von Hippel-Lindau disease tumor suppressor/Phosphatidylinositol 4,5-bisphosphate 3-kinase catalytic subunit alpha isoform (P42336 whole entry, looked up, canonical isoform): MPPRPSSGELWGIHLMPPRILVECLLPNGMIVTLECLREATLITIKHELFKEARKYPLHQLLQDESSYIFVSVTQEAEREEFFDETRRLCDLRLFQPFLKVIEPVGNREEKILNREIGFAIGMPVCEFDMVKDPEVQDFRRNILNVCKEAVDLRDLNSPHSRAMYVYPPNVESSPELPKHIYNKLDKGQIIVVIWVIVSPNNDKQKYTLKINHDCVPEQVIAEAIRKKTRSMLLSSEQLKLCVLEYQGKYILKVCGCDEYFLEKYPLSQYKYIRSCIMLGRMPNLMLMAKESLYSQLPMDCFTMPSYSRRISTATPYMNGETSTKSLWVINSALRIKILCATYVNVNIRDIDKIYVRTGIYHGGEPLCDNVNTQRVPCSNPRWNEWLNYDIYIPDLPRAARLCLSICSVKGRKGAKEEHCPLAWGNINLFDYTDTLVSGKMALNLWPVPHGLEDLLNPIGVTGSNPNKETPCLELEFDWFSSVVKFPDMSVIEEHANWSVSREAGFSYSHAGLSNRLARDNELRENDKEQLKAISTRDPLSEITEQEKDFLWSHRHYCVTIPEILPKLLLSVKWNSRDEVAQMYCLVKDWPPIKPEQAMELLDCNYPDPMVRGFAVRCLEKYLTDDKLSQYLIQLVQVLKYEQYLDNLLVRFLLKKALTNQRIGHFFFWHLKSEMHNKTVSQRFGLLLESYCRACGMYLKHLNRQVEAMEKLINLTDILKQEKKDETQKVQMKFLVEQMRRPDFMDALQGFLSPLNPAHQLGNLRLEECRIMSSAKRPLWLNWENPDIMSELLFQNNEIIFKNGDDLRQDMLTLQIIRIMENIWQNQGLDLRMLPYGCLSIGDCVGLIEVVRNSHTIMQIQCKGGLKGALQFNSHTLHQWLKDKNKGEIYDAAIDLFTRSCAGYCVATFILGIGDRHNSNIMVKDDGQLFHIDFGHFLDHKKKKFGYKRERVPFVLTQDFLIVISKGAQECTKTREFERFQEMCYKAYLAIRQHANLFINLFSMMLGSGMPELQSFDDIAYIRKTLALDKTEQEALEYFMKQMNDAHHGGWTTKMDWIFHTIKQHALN

| SMILES | Activity [1] | IC50 (MCF7) | Activity (MCF7/ADM [2]) | Activity (A549/CDDP [3]) | Activity [4] | IC50 (A549) | inhibition (INH) [5] | Activity (MCF7/ADM [6]) | Activity [7] | Activity [8] | Activity (MCF7/ADM [9]) | Activity [10] | Activity (A549/CDDP [11]) | Activity (MCF7/ADM [12]) | Activity (A549/CDDP [13]) | Activity (MCF7/ADM [14]) | Activity [15] | Activity (MCF7/ADM [16]) | Activity (A549/CDDP [17]) | Activity [18] | also measured |
| --- | --- | --- | --- | --- | --- | --- | --- | --- | --- | --- | --- | --- | --- | --- | --- | --- | --- | --- | --- | --- | --- |
| Cc1cc(C(C)Nc2ccccc2C(=O)NCCCCCCC(=O)N[C@H](C(=O)N2C[C@H](O)C[C@H]2C(=O)NCc2ccc(-c3scnc3C)cc2)C(C)(C)C)c2nc(N3CCOCC3)cc(=O)n2c1 (stereo not given in full) | Non-toxic | 54 µM | Active | Active | Non-toxic | 85.2 µM | Active | Active | Time-dependent-effect | Active | Active | Time-dependent-effect | Active | Active | Active | Active | Active | Active | Active | Non-toxic | IC50 [19]: 38.7 µM; Activity [20]: Non-toxic; inhibition (INH) [21]: Active; Activity (MCF7/ADM [22]): Active; Activity [23]: inactive; Activity (MCF7/ADM [24]): Active; Activity [25]: Active; Activity (A549/CDDP [26]): Active; Activity (MCF7/ADM [27]): Active; Activity [28]: Non-toxic; Activity [29]: Non-toxic; Activity [30]: Active; Activity (MCF7/ADM [31]): Active; Activity (A549/CDDP [32]): Active; Activity (Mitochondrial membrane): Active |
| Cc1cc(C(C)Nc2ccccc2C(=O)NCCOCCOCCC(=O)N[C@H](C(=O)N2C[C@H](O)C[C@H]2C(=O)NCc2ccc(-c3scnc3C)cc2)C(C)(C)C)c2nc(N3CCOCC3)cc(=O)n2c1 (stereo not given in full) | Non-toxic | 33.9 µM | Active | Active | Non-toxic | 75.3 µM | Active | Active | Time-dependent-effect | Active | Active | Time-dependent-effect | Active | Active | Active | Active | Active | Active | Active | Non-toxic | IC50 [19]: 30.2 µM; Activity [20]: Non-toxic; inhibition (INH) [21]: Active; Activity (MCF7/ADM [22]): Active; Activity [23]: inactive; Activity (MCF7/ADM [24]): Active; Activity [25]: Active; Activity (A549/CDDP [26]): Active; Activity (MCF7/ADM [27]): Active; Activity [28]: Non-toxic; Activity [29]: Non-toxic; Activity [30]: Active; Activity (MCF7/ADM [31]): Active; Activity (A549/CDDP [32]): Active; Activity (Mitochondrial membrane): Active |
